target: T1, Recombinant human farnesyl transferase (FTase) (Homo sapiens, UniProt P49356); assay: FTase fluorescence assay (farnesylation of dansyl-GCVLS peptide); format: biochemical; conditions: recombinant human FTase 2.5 nM, Dansyl-GCVLS 85 nM, FPP 30 nM, 30° C., 50 minutes
T1 construct: purchased Crelux (Martinsried, Germany)
Text: T24/83 cell line was purchased from the European Collection of Authenticated Cell Cultures (Salisbury, UK). Recombinant human farnesyl transferase (FTase) and geranylgeranyl transferase type-1 (GGTase) were obtained from Crelux (Martinsried, Germany). Dansyl labelled GCVLS peptide was purchased from Bachem (Torrance, CA), and Dansyl labelled GCVLL peptide was purchased from Bio Synthesis (Lewisville, TX). Farnesyl Pyrophosphate (FPP) and Geranylgeranyl pyrophosphate (GGPP) were purchased from Cayman (Ann Arbor, MI).
Specific biochemical activity of the compounds disclosed herein as FTase inhibitors was determined by measuring the ability of the compounds to block the farnesylation by recombinant FTase of fluorescent (i.e., dansyl-labeled) test substrates derived from the CAAX box of farnesylated proteins, such as the peptide GCVLS.
The IC50 value of the compounds disclosed herein as inhibitors of Ftase and/or GGTase, was determined by measuring the concentration (provided in nM) necessary to achieve inhibition of enzyme activity by 50% (IC50). […] Compounds having a low IC50 value against FTase, for example an IC50 (FTase)<100 nM, such as an IC50 (FTase)<10 nM, are preferred. Compounds having a low IC50 value against FTase and a high IC50 value against GGTase, for example an IC50 (FTase)<100 nM, such as an IC50 (FTase)<10 nM, and an IC50 (GGTase)>100 nM, are potent and selective inhibitors of FTase, and are particularly preferred.
The inhibition activities of the compounds disclosed herein against Ftase and GGTase were measured in the respective fluorescence assays as follows:
For the FTase assay, recombinant human FTase (2.5 nM), Dansyl labelled GCVLS peptide (85 nM), FPP (30 nM) and inhibitor were mixed in assay buffer (50 mM Tris, pH 7.5, 10 mM magnesium chloride, 10 μM zinc chloride, 0.08% CHAPS, 5 mM dithiothreitol) and incubated in a total volume of 20 μL at 30° C. for 50 minutes.
For both the FTase assay and GGTase assay, fluorescence intensity was detected (excitation at 340 nm and emission at 486 nm) using EnVision (PerkinElmer; Waltham, MA), IC50 determinations were performed using a sigmoidal dose-response model with Xlfit software (IDBS, Inc.; Boston, MA), and tipifarnib was used as a positive control. All the assay plates for each assay passed the QC criteria (S/B, Z factor).

Row | IC50 | SMILES
1 | 10 to 100 nM | [2H]C([2H])([2H])n1c(=O)cc2c3cc(ccc31)[C@@H](n1cnc(C)n1)c1ccc(Cl)c(c1)COc1cccc-2c1 [(R)-080, (R)-4^4-chloro-2^1-(methyl-d3)-3-(3-methyl-1H-1,2,4-triazol-1-yl)-2^1,2^2-dihydro-6-oxa-2(4,6)-quinolina-1,4(1,3)-dibenzenacyclohexaphan-2^2-one]
2 | 10 to 100 nM | Cn1cncc1C1(N)c2ccc(C#N)c(c2)COc2cccc(c2)-c2cc(NC3COC3)nc3ccc1cc23 (centres unmarked) [Compound 68, 3-amino-3-(1-methyl-1H-imidazol-5-yl)-2^2-(oxetan-3-ylamino)-6-oxa-2(4,6)-quinolina-1,4(1,3)-dibenzenacyclohexaphane-4^4-carbonitrile]
3 | > 100 nM | Cn1cncc1[C@]1(N)c2ccc(C#N)c(c2)COc2cccc(c2)-c2cc(=O)n(C3CC3)c3ccc1cc23 (racemic) [(R)-57, (R)-3-amino-21-cyclopropyl-3-(1-methyl-1H-imidazol-5-yl)-2^2-oxo-2^1,2^2-dihydro-6-oxa-2(4,6)-quinolina-1,4(1,3)-dibenzenacyclohexaphane-4^4-carbonitrile]
4 | > 100 nM | COc1cc2c3cc(ccc3n1)C(O)(c1cncn1C)c1ccc(Cl)c(c1)OCc1cccc-2c1 (centres unmarked) [Compound 12, 4^4-chloro-2^2-methoxy-3-(1-methyl-1H-imidazol-5-yl)-5-oxa-2(4,6)-quinolina-1,4(1,3)-dibenzenacyclohexaphan-3-ol]
5 | 10 to 100 nM | Cn1cncc1C1(O)c2ccc(C#N)c(c2)COc2cccc(c2)-c2nccc3ccc1cc23 (centres unmarked) [Compound 85, 3-hydroxy-3-(1-methyl-1H-imidazol-5-yl)-6-oxa-2(1,7)-isoquinolina-1,4(1,3)-dibenzenacyclohexaphane-4^4-carbonitrile]
6 | > 100 nM | [2H]C([2H])([2H])n1c(=O)cc2c3cc(ccc31)[C@](N)(c1cncn1C)c1ccc(C#N)c(c1)OCc1cccc-2c1 (racemic) [(R)-20, (R)-3-amino-2^1-(methyl-d3)-3-(1-methyl-1H-imidazol-5-yl)-2^2-oxo-2^1,2^2-dihydro-5-oxa-2(4,6)-quinolina-1,4(1,3)-dibenzenacyclohexaphane-4^4-carbonitrile]
7 | ≤ 10 nM | Cn1cnnc1C1(O)c2ccc(C#N)c(c2)OCCc2cccc(c2)-c2cc(=O)n(C)c3ccc1cc23 (centres unmarked) [Compound 38, 3-hydroxy-2^1-methyl-3-(4-methyl-4H-1,2,4-triazol-3-yl)-2^2-oxo-2^1,2^2-dihydro-5-oxa-2(4,6)-quinolina-1,4(1,3)-dibenzenacycloheptaphane-4^4-carbonitrile]
8 | 10 to 100 nM | Cc1cn([C@H]2c3ccc(C#N)c(c3)COc3cccc(c3)-c3cc(C#N)nc4ccc2cc34)cn1 [(R)-90, (R)-3-(4-methyl-1H-imidazol-1-yl)-6-oxa-2(4,6)-quinolina-1,4(1,3)-dibenzenacyclohexaphane-2^2,4^4-dicarbonitrile]
9 | > 100 nM | Cn1cncc1[C@]1(N)c2ccc(C#N)c(c2)OCc2cccc(c2)-c2cc(=O)n(C)c3ccc1cc23 (racemic) [(R)-19, (R)-3-amino-2^1-methyl-3-(1-methyl-1H-imidazol-5-yl)-2^2-oxo-2^1,2^2-dihydro-5-oxa-2(4,6)-quinolina-1,4(1,3)-dibenzenacyclohexaphane-4^4-carbonitrile]

Further lines, the compound ahead of its results:

Row | SMILES | IC50
10 | [2H]C([2H])([2H])n1c(=O)cc2c3cc(ccc31)[C@](N)(c1cncn1C)c1ccc(C#N)c(c1)COc1cccc-2c1 (racemic) [(R)-56, (R)-3-amino-2^1-(methyl-d3)-3-(1-methyl-1H-imidazol-5-yl)-2^2-oxo-2^1,2^2-dihydro-6-oxa-2(4,6)-quinolina-1,4(1,3)-dibenzenacyclohexaphane-4^4-carbonitrile] | > 100 nM
11 | Cn1cncc1[C@]1(O)c2ccc(Cl)c(c2)OCCc2cccc(c2)-c2cc(=O)n(C3CC3)c3ccc1cc23 (racemic) [(R)-29, (R)-4^4-chloro-2^1-cyclopropyl-3-hydroxy-3-(1-methyl-1H-imidazol-5-yl)-2^1,2^2-dihydro-5-oxa-2(4,6)-quinolina-1,4(1,3)-dibenzenacycloheptaphan-2^2-one] | > 100 nM
12 | [2H]C([2H])([2H])n1c(=O)cc2c3cc(ccc31)C(O)(c1nncn1C)c1ccc(Cl)c(c1)OCCc1cccc-2c1 (centres unmarked) [Compound 32, 4^4-chloro-3-hydroxy-2^1-(methyl-d3)-3-(4-methyl-4H-1,2,4-triazol-3-yl)-2^1,2^2-dihydro-5-oxa-2(4,6)-quinolina-1,4(1,3)-dibenzenacycloheptaphan-2^2-one] | 10 to 100 nM
13 | [2H]C([2H])([2H])n1c(=O)cc2c3cc(ccc31)[C@@H](n1ncnc1C)c1ccc(Cl)c(c1)COc1cccc-2c1 [(R)-079, (R)-4^4-chloro-2^1-(methyl-d3)-3-(5-methyl-1H-1,2,4-triazol-1-yl)-2^1,2^2-dihydro-6-oxa-2(4,6)-quinolina-1,4(1,3)-dibenzenacyclohexaphan-2^2-one] | 10 to 100 nM
14 | Cn1cnnc1[C@]1(N)c2ccc(C#N)c(c2)OCCc2cccc(c2)-c2cc(=O)n(C)c3ccc1cc23 (racemic) [(R)-39, (R)-3-amino-21-methyl-3-(4-methyl-4H-1,2,4-triazol-3-yl)-2^2-oxo-2^1,2^2-dihydro-5-oxa-2(4,6)-quinolina-1,4(1,3)-dibenzenacycloheptaphane-4^4-carbonitrile] | > 100 nM
15 | Cn1cncc1[C@]1(N)c2ccc(Cl)c(c2)COc2cccc(c2)-c2cc(C#N)nc3ccc1cc23 (racemic) [(R)-48, (R)-3-amino-4^4-chloro-3-(1-methyl-1H-imidazol-5-yl)-6-oxa-2(4,6)-quinolina-1,4(1,3)-dibenzenacyclohexaphane-2^2-carbonitrile] | 10 to 100 nM
16 | Cn1cncc1[C@]1(N)c2ccc(C#N)c(c2)CCc2cccc(c2)-c2cc(C#N)nc3ccc1cc23 (racemic) [(S)-9, (S)-3-amino-3-(1-methyl-1H-imidazol-5-yl)-2(4,6)-quinolina-1,4(1,3)-dibenzenacyclohexaphane-2^2,4^4-dicarbonitrile] | > 100 nM
17 | [2H]C([2H])([2H])n1cncc1[C@@]1(O)c2ccc(C#N)c(c2)COc2cccc(c2)-c2cc(C#N)nc3ccc1cc23 [(S)-078, (S)-3-hydroxy-3-(1-(methyl-d3)-1H-imidazol-5-yl)-6-oxa-2(4,6)-quinolina-1,4(1,3)-dibenzenacyclohexaphane-2^2 4^4-dicarbonitrile] | ≤ 10 nM
18 | [2H]C([2H])([2H])n1c(=O)cc2c3cc(ccc31)[C@@H](n1cnc(C)c1)c1ccc(Cl)c(c1)COc1cccc-2c1 [(R)-77, (R)-4^4-chloro-2^1-(methyl-d3)-3-(4-methyl-1H-imidazol-1-yl)-2^1,2^2-dihydro-6-oxa-2(4,6)-quinolina-1,4(1,3)-dibenzenacyclohexaphan-2^2-one] | 10 to 100 nM
19 | [2H]C([2H])([2H])n1c(=O)cc2c3cc(ccc31)[C@H](n1cncc1C)c1ccc(Cl)c(c1)COc1cccc-2c1 [(S)-76, (S)-4^4-chloro-2^1-(methyl-d3)-3-(5-methyl-1H-imidazol-1-yl)-2^1,2^2-dihydro-6-oxa-2(4,6)-quinolina-1,4(1,3)-dibenzenacyclohexaphan-2^2-one] | 10 to 100 nM
20 | Cn1cncc1[C@]1(N)c2ccc(C#N)c(c2)CCc2cccc(c2)-c2cc(=O)n(C)c3ccc1cc23 (racemic) [(S)-7, (S)-3-amino-2^1-methyl-3-(1-methyl-1H-imidazol-5-yl)-22-oxo-2^1,2^2-dihydro-2(4,6)-quinolina-1,4(1,3)-dibenzenacyclohexaphane-4^4-carbonitrile] | > 100 nM

Reference: US12018011B2, “Macrocyclic compounds and compositions, and methods of preparing and using the same” (Kura Oncology, Inc., priority 2021, dated 2024)
